Experimental data from EP1339379B1, “NOVEL USE OF PROTEIN HYDROLYSATES” (Henkel Kommanditgesellschaft auf Aktien, priority 2000, dated 2002).

Assay: Hair-restructuring effect by HP-DSC: melting point of permed hair strands after post-treatment with the active
Details: melting point of the hair (DSC, Perkin Elmer DSC-7); permed strands dipped 10 min at 23°C in 1% aqueous solution of the active at pH 3, rinsed 1 min, dried, rested 16 h; comparison without post-treatment 149,8
Source text: Strähnen der Fa. Alkinco (0,5g, Code 6634) wurden einer herkömmlichen Dauerwellbehandlungen mit dem Handelsprodukt Poly Lock-Normale Dauerwelle unterzogen. Im Rahmen dieser Dauerwellbehandlung wurden die Fasern in einem ersten Schritt für 40 Minuten bei Raumtemperatur der Reduktionslösung (enthaltend 7,9 Gew.-% Thioglykolsäure) ausgesetzt, mit reinem Wasser gespült und anschließend bei Raumtemperatur für 10 Minuten fixiert (Oxidationslösung, enthaltend 2,6 Gew.-% Wasserstoffperoxid). Nach der oxidativen Behandlung wurden die Fasern gespült und getrocknet.
Die Strähnen wurden jeweils bei einer Temperatur von 23°C 10 Minuten in eine 1% ige wäßrige Lösung der jeweiligen Wirkstoffe bei einem pH - Wert von 3, welcher mit Natronlauge oder Salzsäure eingestellt wurde, getaucht. Anschließend wurde jede Haarsträhne 1 Minute mit klarem Wasser gespült, getrocknet und 16 h ruhen gelassen.
Mittels einer DSC-Analyse (Perkin Elmer DSC-7) wurden die folgenden in Tabelle 1 dargestellten Schmelzpunkte ermittelt. Eine genaue Beschreibung der Methode findet sich beispielsweise in der DE 196 173 95 A1

Substance: Poly-D/L-Alanin
- Schmelzpunkt in °C: 151,8 °C

Substance: Poly-L-Serin
- Schmelzpunkt in °C: 151,9 °C
